{
  "source": "patent US11529361B2",
  "about": "“Halogenated salicylanilides for treating Clostridium infections” (UNION therapeutics A/S, priority 2015, dated 2022)",
  "key": {"[1]": {"test_system": "C. difficile clinical isolates", "experiment": "MIC determination by microbroth dilution per CLSI guideline (Example 1)", "format": "cell-based, Clostridium difficile", "conditions": "Clostridioides difficile"}, "[2]": {"test_system": "C. difficile clinical isolates", "conditions": "C. difficile strain ATCC 700057, reference control; cited from earlier work"}, "[3]": {"test_system": "C. difficile", "conditions": "published data (footnote a); cited from earlier work"}},
  "note": "Where two headings read alike, the source gives them in different places.",
  "data": [
    {"smiles": "CN[C@H](CC(C)C)C(=O)N[C@H]1C(=O)N[C@@H](CC(N)=O)C(=O)N[C@H]2C(=O)N[C@H]3C(=O)N[C@H](C(=O)N[C@H](C(=O)O)c4cc(O)cc(O)c4-c4cc3ccc4O)[C@H](O)c3ccc(c(Cl)c3)Oc3cc2cc(c3O[C@@H]2O[C@H](CO)[C@@H](O)[C@H](O)[C@H]2O[C@H]2C[C@](C)(N)[C@H](O)[C@H](C)O2)Oc2ccc(cc2Cl)[C@H]1O", "note": "[Vancomycin]", "values": [
      {"measurement": "MIC", "setting": "[1]; read-out: C. difficile Strain 7-6011209 MIC", "result": 0.125, "unit": "µg/mL"},
      {"measurement": "MIC", "setting": "[1]; read-out: C. difficile Strain 12055 MIC", "result": 0.25, "unit": "µg/mL"},
      {"measurement": "expected MIC of reference control strain", "setting": "[2]", "result": 1, "unit": "µg/mL"},
      {"measurement": "Highest MIC observed", "setting": "[3]", "result": "16^a μg/mL"},
      {"measurement": "MIC90", "setting": "[3]", "result": "2^a μg/mL"}
    ]}
  ]
}
